# Measured values taken from US20260132123A1, “ABAD INHIBITOR COMPOUNDS” (UNIVERSITY COURT OF THE UNIVERSITY OF ST ANDREWS, priority 2021, published 2026).
# Read-outs that look alike come from different tables or passages of the source.
# What was measured:
# 17β-HSD10 [1] = biological target: T1, 17β-HSD10 (Homo sapiens, UniProt Q99714); assay: 17β-HSD10 (ABAD) enzyme inhibition assay, NADH oxidation read at 340 nm (primary screen and dose response); format: biochemical; details: for EC50 / Max. Effect (%) / Hill Slope / Max. Fit / Min. Fit: recombinant 17βHSD10 enzyme assay; for Hill Slope / Max. Fit / Min. Fit: curve fit
# T1 construct: Histev (histidine tag with TEV site) (N, cleaved yes); made in house; host or cells: E. coli BL21-CodonPlus
# T1 sequence (Q99714 1-261): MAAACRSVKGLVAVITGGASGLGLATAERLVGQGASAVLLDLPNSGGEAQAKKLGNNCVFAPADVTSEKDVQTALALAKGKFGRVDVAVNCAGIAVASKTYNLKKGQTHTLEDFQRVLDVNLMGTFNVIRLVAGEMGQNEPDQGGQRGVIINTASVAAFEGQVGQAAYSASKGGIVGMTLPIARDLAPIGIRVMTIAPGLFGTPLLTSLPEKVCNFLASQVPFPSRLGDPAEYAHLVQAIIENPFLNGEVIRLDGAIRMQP
# Outline: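 Tag-cleaved recombinant human 17β-HSD10 (2.5 nM) preincubated 15 min with compound in Tris pH 7.4, NaCl, DTT, Tween, BSA (catalase in some runs), then 100 μM acetoacetyl-CoA and NADH added. NADH oxidation by A340 fall: 35 min endpoint for screening at 10 μM; continuous 45 min for dose response.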
# 17β-HSD10 [2] = biological target: T1, 17β-HSD10; assay: Mechanism of action against the substrates NADH and AcetoAcetyl CoA; format: biochemical; details: for mode of binding with respect to NADH: AcAc in excess at 800 μM; for mode of binding with respect to AcAc: excess of 100 μM NADH
# Description: To determine the kinetics for acetoacetyl-CoA and the effect of 17β-HSD10 concentration upon reaction rate, a matrix titration experiment was set up. Previously determined conditions were used with a fixed concentration of 700 μM NADH and a starting concentration of up to 200 μM acetoacetyl-CoA. Doubling dilutions of acetoacetyl-CoA were then coupled with doubling dilutions of 17β-HSD10, which started with a maximum concentration of 40 nM. Data collected from the experiment was analysed using a standard template, from which reaction progress curves were analysed to calculate initial velocities and obtain Km values using the Michaelis-Menten equation (XLFit, ID Business Solutions).
# To determine the kinetics for NADH and the effect of 17β-HSD10 concentration upon reaction rate a matrix titration experiment was set up. Previously determined conditions (Aitken et al. 2017, supra) were used, 120 μM acetoacetate and a starting concentration of up to 1000 μM NADH. Doubling dilutions of NADH were then coupled with doubling dilutions of 17β-HSD10, which started with a maximum concentration of 40 nM. Data were analysed as described previously (Aitken et al. 2017, supra).
# Two compounds, ESC1002033 and ESC1002082, representative of the two different clusters were investigated for their mechanism of action against the substrates, NADH and AcetoAcetyl CoA (AcAc). The ESC inhibitors were tested as 12-point 1 in 1.5 dilution series with a maximal concentration of 2.5 μM.
# [3] = biological target: T2, 17β-HSD10 in HEK293 mts17β-HSD10 cells (Homo sapiens, UniProt Q99714); assay: (-)-CHANA enzyme activity cell based assay; details: cellular 17β-HSD10, HEK 293 cells, (-)-CHANA probe
# T2 construct: expressed in transfected cells; host or cells: HEK293
# T2 sequence (Q99714 1-261): T1 sequence (Q99714 1-261)
# Description: HEK293 mts17β-HSD10 cells were seeded at a density of 10,000 cells per well (100 μL, 96 well black plates) in phenol-red free media (10% FBS, 1 mM sodium pyruvate, 100 units penicillin, 0.1 mg/mL streptomycin and 2 mM L-glutamine). After 24 hours the media was removed from the cells and replaced with fresh media containing varying concentrations of compound (100 μM-0.098 μM). The fluorogenic probe (-)-CHANA was then added to each well to give a final assay concentration of 20 μM. Fluorescence was immediately measured using a FLUOstar Optima microplate reader (excitation=380 nm, emission=520 nm, orbital averaging=3 mm) and the initial reaction monitored for 3-4 hours. IC50 was calculated from the control-subtracted triplicates using non-linear regression (four parameters) of GraphPad Prism 5 software. Final IC50 and SEM value was obtained as a mean of at least 3 independent measurements.
# REF: (-)-CHANA, a Fluorogenic Probe for Detecting Amyloid Binding Alcohol Dehydrogenase HSD10 Activity in Living Cells Kirsty E. A. Muirhead, Mary Froemming, Xiaoguang Li, Kamil Musilek, Stuart J. Conway, Dalibor Sames, and Frank J. Gunn-Moore ACS Chemical Biology 2010 5 (12), 1105-1114DOI: 10.1021/cb100199m) to monitor the oxidative activity of 17β-HSD10 in living cells. […]
# [4] = Mouse hepatocyte stability; format: in vitro ADME; design: k: unit not given here; details: for Heps Category: hepatocyte metabolism category, mouse; for Cl / half-life / k: mouse hepatocytes; for Cl: clearance; for k: k=absorption rate constant (so in the source)
# From the text: (§1) Table 5: Initial mouse hepatocyte stability and plasma protein binding experiments were undertaken on some of the best exemplars from the representative series with AG18051 a previously published 17β-HSD10 inhibitor (C. R. Kissinger et al., J. Mol. Biol., 342 (2004), p. 943; Lim, Y.-A., Grimm, A., Giese, M. PLoS ONE (2011), 6, e28887.) Ref: shown for comparison. Where k=absorption rate constant Cl=clearance, T1/2=half-life, Heps=hepatocyte metabolism, PPB=plasma protein binding.
# [5] = Mouse plasma protein binding; format: in vitro ADME
# From the text: as §1
# 17β-HSD10 [6] = biological target: T1, 17β-HSD10; assay: Thermal shift analysis; format: binding; details: 20 μM compound, 1 mM NADH
# Description: Solutions containing compound at two concentrations (25 μM and 100 μM) added to assay buffer (50 mM Hepes, 0.5 M NaCl, pH 8.2, SYPRO orange 20 X, ±1 mM NADH) were plated in triplicate (25 μl per well) in MicroAmp 96-well plates (Thermo Fisher: 4346907). The plates were then sealed with optical grade sealing film (Thermo Fisher: 4311971) and loaded into a ViiA 7 RT-PCR machine ((Thermo Fisher: 4453534) (ramp speed 0.015° C./sec, 25-95° C.)). Data was exported to GraphPad PRISM and Tm values were calculated using the Boltzmann sigmoidal curve fit equation.
# The ΔTm for one compound from each series is presented in FIG. 9 with a representative derivative plot of ESC1002033 and ESC1002082 in FIG. 9a.
# mtsABAD HEK293 cells [7] = assay: Lactate dehydrogenase (LDH) cytotoxicity assay; format: cell-based, human; details: 50 μM compound, listed as ESC1002204-01
# mtsABAD HEK293 cells [8] = assay: Alamar Blue cell viability assay; format: cell-based, human; details: 50 μM compound, listed as ESC1002204-01
# [9] = Table 5, read-out: Mean ABAD pIC50 (converted)
SMILES,EC50 (17β-HSD10 [1]) [nM],Max. Effect (%) (17β-HSD10 [1]),Hill Slope (17β-HSD10 [1]),Max. Fit (17β-HSD10 [1]),Min. Fit (17β-HSD10 [1]),IC50 (17β-HSD10 [1]; [9]) [nM],Heps Category [4],Cl [4] [ml/minute/g liver],half-life [4] [min],k [4],Mouse PPB (% free) [5] [% free],other results
"COc1ccc(-c2ccccc2C2CCCN2C(=O)c2sccc2C)cn1 (racemic) [ESC1002082, [2-[2-(6-methoxy-3-pyridyl)phenyl]pyrrolidin-1-yl]-(3-methyl-2-thienyl)methanone]",794,96,1.1,98,0,,,,,,,"17β-HSD10 pIC50 (17β-HSD10 [1]; 17β-HSD10 dose response / inhibition assay): 6.1; IC50 (17β-HSD10 [1]; primary screening, resynthesized HTS hit compounds, read-out: ABAD plC50 (converted)): 794 nM; mode of binding with respect to NADH (17β-HSD10 [2]): non-competitively; mode of binding with respect to AcAc (17β-HSD10 [2]): competitively"
"O=C(c1sccc1Cl)N1CCC[C@H]1c1ccccc1-c1cccc(O)c1 (single isomer, unassigned) [ESC1002755]",20,95,1,93,−2,18.6,High,105.8,3.14,0.22,,fold improvement in activity / potency (17β-HSD10 [1]; relative to the parent compound of the sentence): 40 fold; EC50 [3]: 28 nM
"COc1cccc(-c2ccccc2[C@@H]2CCCN2C(=O)c2[nH]ncc2Cl)c1 (single isomer, unassigned) [ESC1002757]",115,94,0.89,95,−10,105,High,62.4,5.33,0.13,,
"Cc1ccsc1C(=O)N1CCC[C@H]1c1ccccc1-c1cccc(Cl)c1 (single isomer, unassigned) [ESC1002769]",191,94,1,93,−3,170,High,71.5,4.65,0.15,,
"O=C(c1[nH]ncc1Cl)N1CCC[C@H]1c1ccccc1-c1cccc(O)c1 (single isomer, unassigned) [ESC1002799]",155,97,1.1,96,−3,110,High,21.9,15.2,0.046,9.9,
"O=C(c1sccc1Cl)N1CCC[C@H]1c1ccccc1-c1cc(O)ccc1F (single isomer, unassigned) [ESC1002842]",40.7,102,1.1,98,−3,34.7,High,83.1,4,0.17,3.4,
"CC(C)CN(C(=O)c1ccccc1F)c1cccc(N(C)Cc2cnc[nH]2)c1 [ESC1002033, 2-fluoro-N-[3-[1H-imidazol-5-ylmethyl(methyl)amino]phenyl]-N-isobutyl-benzamide]",200,99,1,99,−3,,Mod,6.2,,0.013,,Mean ABAD pIC50 (17β-HSD10 [1]; Table 5): 6.7; ΔTm at 20 µM (17β-HSD10 [6]): 6.75 °C; mode of binding with respect to NADH (17β-HSD10 [2]): non-competitively; mode of binding with respect to AcAc (17β-HSD10 [2]): competitively
Cc1ncc(CN(C)c2cccc(N(CC(C)C)C(=O)c3ccccc3F)c2)[nH]1 [ESC1002204],398,97,1.2,98,0,398,High,54,6.16,0.11,,17β-HSD10 / ABAD activity in words (SAR discussion) (17β-HSD10 [1]): only slightly reduced ABAD inhibition levels; LDH % Toxicity (50 μM Dose) (mtsABAD HEK293 cells [7]): 5.048%; Alamar Blue % Viability (50 μM Dose) (mtsABAD HEK293 cells [8]): 88.836%
"CC(C)CN(C(=O)c1c(F)cccc1F)c1cccc(N(C)Cc2c[nH]cn2)c1 [ESC1002456, 2,6-difluoro-N-[3-[1H-imidazol-4-ylmethyl(methyl)amino]phenyl]-N-isobutyl-benzamide]",138,97,1.2,96,17,,High,8.6,,0.018,8.9,Mean ABAD pIC50 (17β-HSD10 [1]; Table 5): 6.86
"Cc1ccc(C(=O)N(CC(C)C)c2cccc(N(C)Cc3c[nH]cn3)c2)c(F)c1 [ESC1002575, 2-fluoro-N-[3-[1H-imidazol-4-ylmethyl(methyl)amino]phenyl]-N-isobutyl-4-methyl-benzam]",269,102,1.3,101,10,,Mod,5.8,,0.012,7.6,Mean ABAD pIC50 (17β-HSD10 [1]; Table 5): 6.57
Cc1ccsc1C(=O)N(CC(C)C)c1cccc(N(C)Cc2c[nH]cn2)c1 [ESC1002597],398,100,1.4,96,4,398,Mod,7.2,46.2,0.02,,
